Reference: ChEMBL document CHEMBL4507303, “Data for DCP probe TP-004” (2021)

Legend:
[1] = molecular target: GABA-A receptor; anion channel (Rattus norvegicus) (UniProt O09028+P15431+P18506+P18508+P19969+P20236+P23574+P23576+P28471+P28473+P30191+P62813+P63079+P63138+Q91ZM7+Q9ES14); conditions: Compound concentration 10.0 uM
[2] = molecular target: SRSF protein kinase 2 (Homo sapiens) (UniProt P78362); conditions: Compound concentration 1000.0 nM
[3] = molecular target: Serine/threonine-protein kinase 24 (Homo sapiens) (UniProt Q9Y6E0); conditions: Compound concentration 1000.0 nM
[4] = molecular target: Citron Rho-interacting kinase (Homo sapiens) (UniProt O14578); conditions: Compound concentration 1000.0 nM
[5] = molecular target: Serine/threonine-protein kinase tousled-like 2 (Homo sapiens) (UniProt Q86UE8); conditions: Compound concentration 1000.0 nM
[6] = molecular target: Mitogen-activated protein kinase 4 (Homo sapiens) (UniProt P31152); conditions: Compound concentration 1000.0 nM
[7] = tested on: Phosphatidylinositol 4,5-bisphosphate 3-kinase catalytic subunit alpha isoform (Homo sapiens), P42336 [H1047Y]; conditions: Compound concentration 1000.0 nM
[8] = molecular target: Serine/threonine-protein kinase MRCK beta (Homo sapiens) (UniProt Q9Y5S2); conditions: Compound concentration 1000.0 nM
[9] = molecular target: 3-phosphoinositide-dependent protein kinase 1 (Homo sapiens) (UniProt O15530); conditions: Compound concentration 1000.0 nM
[10] = molecular target: Hormonally up-regulated neu tumor-associated kinase (Homo sapiens) (UniProt P57058); conditions: Compound concentration 1000.0 nM
Sequence of Hormonally up-regulated neu tumor-associated kinase (Homo sapiens) (P57058 whole entry): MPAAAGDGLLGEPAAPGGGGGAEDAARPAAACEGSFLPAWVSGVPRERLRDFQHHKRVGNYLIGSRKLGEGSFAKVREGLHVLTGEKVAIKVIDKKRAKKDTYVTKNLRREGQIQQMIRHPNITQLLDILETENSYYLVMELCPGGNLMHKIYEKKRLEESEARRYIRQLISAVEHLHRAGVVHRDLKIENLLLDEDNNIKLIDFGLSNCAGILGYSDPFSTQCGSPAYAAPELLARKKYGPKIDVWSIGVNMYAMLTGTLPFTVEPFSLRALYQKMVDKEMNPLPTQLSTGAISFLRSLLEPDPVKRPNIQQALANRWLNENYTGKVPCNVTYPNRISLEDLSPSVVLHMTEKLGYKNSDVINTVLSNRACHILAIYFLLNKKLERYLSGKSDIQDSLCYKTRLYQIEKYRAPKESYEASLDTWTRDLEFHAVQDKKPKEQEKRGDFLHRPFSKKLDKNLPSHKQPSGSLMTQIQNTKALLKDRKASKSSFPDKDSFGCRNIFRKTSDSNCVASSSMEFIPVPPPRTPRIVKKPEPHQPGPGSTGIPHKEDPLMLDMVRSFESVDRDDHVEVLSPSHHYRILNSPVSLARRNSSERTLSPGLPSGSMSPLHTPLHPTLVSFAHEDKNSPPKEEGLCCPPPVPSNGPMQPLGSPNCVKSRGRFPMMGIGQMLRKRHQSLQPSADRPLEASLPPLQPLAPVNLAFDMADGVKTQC

[11] = molecular target: Serine/threonine-protein kinase Nek5 (Homo sapiens) (UniProt Q6P3R8); conditions: Compound concentration 1000.0 nM
[12] = molecular target: RAF proto-oncogene serine/threonine-protein kinase (Homo sapiens) (UniProt P04049); conditions: Compound concentration 1000.0 nM
[13] = molecular target: Beta-3 adrenergic receptor (Homo sapiens) (UniProt P13945); conditions: Compound concentration 10.0 uM
[14] = molecular target: Mitogen-activated protein kinase kinase kinase 11 (Homo sapiens) (UniProt Q16584); conditions: Compound concentration 1000.0 nM
[15] = molecular target: Activated CDC42 kinase 1 (Homo sapiens) (UniProt Q07912); conditions: Compound concentration 1000.0 nM
[16] = molecular target: Tyrosine-protein kinase ITK/TSK (Homo sapiens) (UniProt Q08881); conditions: Compound concentration 1000.0 nM
[17] = tested on: Phosphatidylinositol 4,5-bisphosphate 3-kinase catalytic subunit alpha isoform (Homo sapiens), P42336 [M1043I]; conditions: Compound concentration 1000.0 nM
Sequence of Phosphatidylinositol 4,5-bisphosphate 3-kinase catalytic subunit alpha isoform (Homo sapiens), P42336 [M1043I] (P42336 whole entry M1043I, canonical isoform): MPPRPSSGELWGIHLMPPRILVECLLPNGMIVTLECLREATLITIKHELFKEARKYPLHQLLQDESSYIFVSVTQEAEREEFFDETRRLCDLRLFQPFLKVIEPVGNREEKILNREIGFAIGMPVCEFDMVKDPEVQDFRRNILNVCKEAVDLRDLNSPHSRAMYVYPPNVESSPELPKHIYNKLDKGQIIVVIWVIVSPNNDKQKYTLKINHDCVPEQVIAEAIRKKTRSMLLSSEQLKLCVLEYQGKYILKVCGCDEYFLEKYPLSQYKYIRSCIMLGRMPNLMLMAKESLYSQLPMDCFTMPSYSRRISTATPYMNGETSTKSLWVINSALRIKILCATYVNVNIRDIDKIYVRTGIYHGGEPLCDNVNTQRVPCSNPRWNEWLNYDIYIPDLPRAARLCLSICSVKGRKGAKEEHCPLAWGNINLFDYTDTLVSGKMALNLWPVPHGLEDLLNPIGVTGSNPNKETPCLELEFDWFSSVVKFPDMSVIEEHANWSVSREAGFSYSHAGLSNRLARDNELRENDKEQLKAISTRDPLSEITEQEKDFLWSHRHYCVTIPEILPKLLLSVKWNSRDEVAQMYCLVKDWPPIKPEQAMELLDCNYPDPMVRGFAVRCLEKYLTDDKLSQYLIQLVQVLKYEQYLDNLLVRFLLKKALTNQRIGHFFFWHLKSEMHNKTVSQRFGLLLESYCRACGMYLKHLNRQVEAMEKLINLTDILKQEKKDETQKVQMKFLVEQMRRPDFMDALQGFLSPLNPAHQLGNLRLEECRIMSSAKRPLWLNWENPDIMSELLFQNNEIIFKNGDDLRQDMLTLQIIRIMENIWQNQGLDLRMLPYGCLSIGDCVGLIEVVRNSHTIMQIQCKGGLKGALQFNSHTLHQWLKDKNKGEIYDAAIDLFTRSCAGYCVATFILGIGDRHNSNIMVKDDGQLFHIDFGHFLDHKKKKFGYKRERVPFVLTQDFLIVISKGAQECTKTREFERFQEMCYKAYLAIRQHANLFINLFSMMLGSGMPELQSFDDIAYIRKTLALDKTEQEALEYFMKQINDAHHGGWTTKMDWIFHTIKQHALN

[18] = molecular target: Sodium-dependent dopamine transporter (Homo sapiens, UniProt Q01959); conditions: Compound concentration 10.0 uM
[19] = molecular target: Epithelial discoidin domain-containing receptor 1 (Homo sapiens) (UniProt Q08345); conditions: Compound concentration 1000.0 nM
[20] = tested on: Tyrosine-protein kinase ABL1 (Homo sapiens), P00519 [F317L]; conditions: Compound concentration 1000.0 nM
[21] = tested on: Receptor-type tyrosine-protein kinase FLT3 (Homo sapiens), P36888 [UNDEFINED MUTATION]; conditions: Compound concentration 1000.0 nM
[22] = molecular target: Phosphatidylinositol 4,5-bisphosphate 3-kinase catalytic subunit gamma isoform (Homo sapiens) (UniProt P48736); conditions: Compound concentration 1000.0 nM
[23] = molecular target: Fibroblast growth factor receptor 1 (Homo sapiens) (UniProt P11362); conditions: Compound concentration 1000.0 nM
[24] = molecular target: Serine/threonine-protein kinase 32C (Homo sapiens) (UniProt Q86UX6); conditions: Compound concentration 1000.0 nM
[25] = molecular target: D(4) dopamine receptor (Homo sapiens) (UniProt P21917); conditions: Compound concentration 10.0 uM
Sequence of D(4) dopamine receptor (Homo sapiens) (P21917 whole entry): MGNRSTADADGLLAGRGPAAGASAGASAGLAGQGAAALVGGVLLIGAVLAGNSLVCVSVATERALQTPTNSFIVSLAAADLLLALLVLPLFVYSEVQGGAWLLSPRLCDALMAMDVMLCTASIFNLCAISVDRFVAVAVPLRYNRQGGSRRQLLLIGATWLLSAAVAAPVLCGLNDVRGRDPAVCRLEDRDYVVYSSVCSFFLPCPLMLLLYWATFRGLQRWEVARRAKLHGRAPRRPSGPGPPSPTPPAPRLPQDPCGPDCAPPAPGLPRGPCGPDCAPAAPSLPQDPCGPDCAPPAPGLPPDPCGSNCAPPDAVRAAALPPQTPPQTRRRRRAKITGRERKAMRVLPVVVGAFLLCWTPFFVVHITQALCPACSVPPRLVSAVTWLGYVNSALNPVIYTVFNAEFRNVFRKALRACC

[26] = molecular target: Epidermal growth factor receptor (Homo sapiens) (UniProt P00533); conditions: Compound concentration 1000.0 nM
Sequence of Epidermal growth factor receptor (Homo sapiens) (P00533 whole entry): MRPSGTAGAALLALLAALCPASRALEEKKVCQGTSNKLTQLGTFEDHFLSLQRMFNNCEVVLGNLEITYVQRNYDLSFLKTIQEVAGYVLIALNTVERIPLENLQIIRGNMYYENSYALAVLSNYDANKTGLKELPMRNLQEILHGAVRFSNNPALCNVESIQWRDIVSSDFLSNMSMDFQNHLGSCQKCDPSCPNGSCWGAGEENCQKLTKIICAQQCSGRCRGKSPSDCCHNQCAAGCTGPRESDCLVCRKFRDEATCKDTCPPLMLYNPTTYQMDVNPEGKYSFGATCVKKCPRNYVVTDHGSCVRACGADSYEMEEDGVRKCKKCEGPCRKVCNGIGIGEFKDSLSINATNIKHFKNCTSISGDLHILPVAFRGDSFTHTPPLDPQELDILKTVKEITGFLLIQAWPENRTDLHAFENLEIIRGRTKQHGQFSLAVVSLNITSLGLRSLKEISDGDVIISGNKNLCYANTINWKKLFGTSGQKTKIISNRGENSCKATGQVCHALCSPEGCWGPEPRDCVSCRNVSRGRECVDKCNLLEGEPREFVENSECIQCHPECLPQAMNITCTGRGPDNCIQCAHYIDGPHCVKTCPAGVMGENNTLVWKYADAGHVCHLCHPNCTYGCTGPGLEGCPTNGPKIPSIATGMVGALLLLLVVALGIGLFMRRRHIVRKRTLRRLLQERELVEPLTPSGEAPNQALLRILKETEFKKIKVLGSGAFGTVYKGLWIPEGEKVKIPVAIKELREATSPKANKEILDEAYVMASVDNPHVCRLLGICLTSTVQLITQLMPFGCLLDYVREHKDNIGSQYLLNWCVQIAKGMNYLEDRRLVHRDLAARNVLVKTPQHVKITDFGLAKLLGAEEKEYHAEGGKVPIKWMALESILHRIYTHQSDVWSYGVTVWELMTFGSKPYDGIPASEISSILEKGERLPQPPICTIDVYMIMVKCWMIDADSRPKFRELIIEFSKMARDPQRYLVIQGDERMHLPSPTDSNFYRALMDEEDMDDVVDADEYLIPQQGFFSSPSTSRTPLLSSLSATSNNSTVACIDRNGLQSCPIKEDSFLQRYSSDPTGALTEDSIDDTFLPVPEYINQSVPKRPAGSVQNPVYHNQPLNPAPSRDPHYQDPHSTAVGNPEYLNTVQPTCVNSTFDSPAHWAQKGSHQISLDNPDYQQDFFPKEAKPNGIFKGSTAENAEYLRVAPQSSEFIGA

[27] = molecular target: Serine/threonine-protein kinase SIK3 (Homo sapiens) (UniProt Q9Y2K2); conditions: Compound concentration 1000.0 nM
[28] = molecular target: Receptor tyrosine-protein kinase erbB-2 (Homo sapiens) (UniProt P04626); conditions: Compound concentration 1000.0 nM
Sequence of Receptor tyrosine-protein kinase erbB-2 (Homo sapiens) (P04626 whole entry): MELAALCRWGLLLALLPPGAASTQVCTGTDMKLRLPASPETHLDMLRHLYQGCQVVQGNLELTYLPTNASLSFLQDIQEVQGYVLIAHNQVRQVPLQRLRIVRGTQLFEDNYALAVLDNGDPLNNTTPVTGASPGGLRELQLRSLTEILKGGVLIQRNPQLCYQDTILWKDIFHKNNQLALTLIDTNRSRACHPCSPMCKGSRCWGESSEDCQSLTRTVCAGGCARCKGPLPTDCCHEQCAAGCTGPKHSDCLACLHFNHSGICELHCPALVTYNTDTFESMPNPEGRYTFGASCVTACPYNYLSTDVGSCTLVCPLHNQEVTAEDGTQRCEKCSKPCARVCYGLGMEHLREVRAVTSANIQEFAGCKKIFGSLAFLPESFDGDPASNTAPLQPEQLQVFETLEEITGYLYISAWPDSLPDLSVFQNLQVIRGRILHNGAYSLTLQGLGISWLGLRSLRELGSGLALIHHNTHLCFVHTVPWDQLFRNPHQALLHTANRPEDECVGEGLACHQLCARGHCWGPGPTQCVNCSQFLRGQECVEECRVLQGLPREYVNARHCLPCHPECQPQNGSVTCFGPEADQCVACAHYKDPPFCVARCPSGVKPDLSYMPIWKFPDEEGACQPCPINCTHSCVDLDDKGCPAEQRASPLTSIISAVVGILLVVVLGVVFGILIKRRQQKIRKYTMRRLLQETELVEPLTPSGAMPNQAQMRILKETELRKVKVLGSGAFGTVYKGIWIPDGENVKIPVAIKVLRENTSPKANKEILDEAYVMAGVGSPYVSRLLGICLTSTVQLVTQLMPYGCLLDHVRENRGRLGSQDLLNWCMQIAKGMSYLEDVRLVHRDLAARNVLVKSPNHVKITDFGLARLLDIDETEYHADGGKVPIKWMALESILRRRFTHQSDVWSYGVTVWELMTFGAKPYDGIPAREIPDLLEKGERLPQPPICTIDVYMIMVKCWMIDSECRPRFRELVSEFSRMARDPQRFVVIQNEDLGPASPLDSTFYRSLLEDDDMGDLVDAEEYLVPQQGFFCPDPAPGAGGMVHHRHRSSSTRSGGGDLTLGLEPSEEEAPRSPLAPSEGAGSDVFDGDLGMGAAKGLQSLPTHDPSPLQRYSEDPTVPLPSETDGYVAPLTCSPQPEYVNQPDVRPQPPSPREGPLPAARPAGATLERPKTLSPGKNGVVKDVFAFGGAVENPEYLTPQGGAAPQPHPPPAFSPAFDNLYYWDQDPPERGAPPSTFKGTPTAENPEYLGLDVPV

[29] = molecular target: Tyrosine-protein kinase Mer (Homo sapiens) (UniProt Q12866); conditions: Compound concentration 1000.0 nM
[30] = tested on: Phosphatidylinositol 4,5-bisphosphate 3-kinase catalytic subunit alpha isoform (Homo sapiens), P42336 [E545K]; conditions: Compound concentration 1000.0 nM
[31] = molecular target: Mitogen-activated protein kinase 3 (Homo sapiens) (UniProt P27361); conditions: Compound concentration 1000.0 nM
[32] = molecular target: Serine/threonine-protein kinase pim-2 (Homo sapiens) (UniProt Q9P1W9); conditions: Compound concentration 1000.0 nM
Sequence of Serine/threonine-protein kinase pim-2 (Homo sapiens) (Q9P1W9 whole entry, looked up): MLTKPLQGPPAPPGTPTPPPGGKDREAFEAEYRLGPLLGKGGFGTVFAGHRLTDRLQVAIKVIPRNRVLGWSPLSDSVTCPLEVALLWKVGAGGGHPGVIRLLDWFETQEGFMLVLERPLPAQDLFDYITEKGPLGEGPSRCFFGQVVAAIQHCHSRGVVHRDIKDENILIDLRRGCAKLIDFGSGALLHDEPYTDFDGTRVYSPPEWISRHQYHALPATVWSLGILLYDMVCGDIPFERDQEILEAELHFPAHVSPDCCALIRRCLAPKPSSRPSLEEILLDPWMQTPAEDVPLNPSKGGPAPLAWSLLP

[33] = molecular target: Serine/threonine-protein kinase ULK1 (Homo sapiens) (UniProt O75385); conditions: Compound concentration 1000.0 nM
[34] = tested on: Receptor-type tyrosine-protein kinase FLT3 (Homo sapiens), P36888 [D835H]; conditions: Compound concentration 1000.0 nM
[35] = molecular target: Myosin-IIIa (Homo sapiens) (UniProt Q8NEV4); conditions: Compound concentration 1000.0 nM
[36] = molecular target: Serine/threonine-protein kinase 4 (Homo sapiens) (UniProt Q13043); conditions: Compound concentration 1000.0 nM
[37] = molecular target: Eukaryotic translation initiation factor 2-alpha kinase 1 (Homo sapiens) (UniProt Q9BQI3); conditions: Compound concentration 1000.0 nM
[38] = molecular target: Ephrin type-B receptor 6 (Homo sapiens) (UniProt O15197); conditions: Compound concentration 1000.0 nM
[39] = molecular target: RAC-gamma serine/threonine-protein kinase (Homo sapiens) (UniProt Q9Y243); conditions: Compound concentration 1000.0 nM
[40] = molecular target: Cytoplasmic tyrosine-protein kinase BMX (Homo sapiens) (UniProt P51813); conditions: Compound concentration 1000.0 nM
[41] = molecular target: 5-hydroxytryptamine receptor 2B (Homo sapiens) (UniProt P41595); conditions: Compound concentration 10.0 uM
[42] = molecular target: Inhibitor of nuclear factor kappa-B kinase subunit beta (Homo sapiens) (UniProt O14920); conditions: Compound concentration 1000.0 nM
[43] = molecular target: Serine/threonine-protein kinase DCLK3 (Homo sapiens) (UniProt Q9C098); conditions: Compound concentration 1000.0 nM

In the case of `Cc1nc(N2CC[C@@H](O)C2)ncc1-c1cc(C(F)(F)F)cc2[nH]ncc12` [TP-004], the inhibition [1] was 16.2%, the residual activity [2] was 100% and the residual activity [3] was 100%. It also gave a residual activity [4] of 82%, a residual activity [5] of 100% and a residual activity [6] of 90%. It also gave a residual activity [7] of 99%, a residual activity [8] of 100% and a residual activity [9] of 100%. It also gave a residual activity [10] of 100%, a residual activity [11] of 100% and a residual activity [12] of 100%. For the same molecule, the inhibition [13] was 20.7%, the residual activity [14] was 100% and the residual activity [15] was 90%. For the same molecule, the residual activity [16] was 64%, the residual activity [17] was 100% and the inhibition [18] was 75.2%. For the same molecule, the residual activity [19] was 100%, the residual activity [20] was 100% and the residual activity [21] was 69%. The residual activity [22] was 82%, the residual activity [23] was 90% and the residual activity [24] was 86%. It also gave an inhibition [25] of 7.69%, a residual activity [26] of 71% and a residual activity [27] of 53%. For the same molecule, the residual activity [28] was 87%, the residual activity [29] was 100% and the residual activity [30] was 56%. For the same molecule, the residual activity [31] was 100%, the residual activity [32] was 89% and the residual activity [33] was 76%. For the same molecule, the residual activity [34] was 100%, the residual activity [35] was 100% and the residual activity [36] was 83%. For the same molecule, the residual activity [37] was 98%, the residual activity [38] was 36% and the residual activity [39] was 77%. It also gave a residual activity [40] of 100%, an inhibition [41] of -1.83% and a residual activity [42] of 77%. It also gave a residual activity [43] of 96%.
